Experimental data: patent US20240316196A1, “METHODS AND COMPOSITIONS FOR DIFFERENTIATION OF PLURIPOTENT STEM CELLS AND DERIVED NATURAL KILLER CELLS” (NUWACELL BIOTECHNOLOGIES CO., LTD., priority 2022, published 2024)

What was measured:
Type in all cases: cell-based
[1] = test system: K562 tumor cells; test: Specific lysis of K562 tumor cells by expanded NK cells (CFSE/7-AAD cytotoxicity assay); settings: heparin sodium 0-50 μg/mL in NKSFM; E:T 3:1, 4 hours (FIG. 3C)
Procedure: (§1) The effect of heparin sodium concentration in an exemplary NKSFM on NK cell expansion was also evaluated. NKSFM comprised the following components: IMDM (Sigma): DMEM/F12 (Gibco) (50%: 50%); about 20 μM of Ethanolamine, about 1-50 ng/mL of Na Selenite, about 110 μg/mL of Sodium pyruvate, 0.1-20 μg/mL of Insulin, 1-200 μg/mL of Transferrin, about 1%(v/v) of GlutaMAX-1, 0.1-20 mg/mL of Human serum albumin, 1-400 μM of MTG, about 80 μg/mL of Ascorbic acid, about 1-5 mM of NAM, 4%(v/v) of PLT, and indicated concentration of heparin sodium. PBMCs were isolated by density gradient centrifugation using Ficoll-Paque. […] Cells were collect on Day 13 and stained with CD56-PE and CD3-PerCP-Cy5.5 antibodies, the percentage of CD56^+CD3^− NK cells was analyzed by flow cytometry. The specific lysis of K562 tumor cells by NK cells were assessed by CFSE/7-AAD cytotoxicity assay. […] After incubation for 4 hours, cells were stained with 7-AAD (Live/dead staining) and analyzed with flow cytometry.
The effect of PLT percentage (v/v) in an exemplary NKSFM on NK cell expansion was evaluated. […] Cells were collect on Day 14 and stained with CD56-PE and CD3-PerCP-Cy5.5 antibodies, the percentage of CD56^+CD3^− NK cells was analyzed by flow cytometry. The specific lysis of K562 tumor cells by NK cells were assessed by CFSE/7-AAD cytotoxicity assay. […]

[2] = test system: PBNK cells; test: Expansion of PBNK cells from PBMCs (NK cell expansion fold; CD56+CD3− % by flow cytometry); settings: heparin sodium 0-50 μg/mL in NKSFM
Procedure: The effect of the concentration of nicotinamide (NAM) in an exemplary basal medium on NK cell expansion was evaluated. The above basal medium comprised the following components: IMDM (Sigma): RPMI1640 (Gibco) (50%: 50%); about 1.3 ng/mL of Cupric sulfate, about 3 μM of Ferric sulfate, about 0.432 μg/mL of Zinc sulfate, about 1-50 ng/mL of Na Selenite, about 110 μg/mL of Sodium pyruvate, 0.1-20 μg/mL of Insulin, 1-200 μg/mL of Transferrin, about 1%(v/v) of GlutaMAX-1, 0.1-20 mg/mL of HSA, 1-400 μM of MTG, about 80 μg/mL of Ascorbic acid and indicated concentration of NAM. Peripheral blood mononuclear cells (PBMCs) were isolated by density gradient centrifugation using Ficoll-Paque. On Day 0, PBMCs were plated at 1×10^6 cells/mL in a 48-well-plate in the basal medium with NAM (either 0, 1, 2, 2.5, 3, 3.5, 4, or 5 mM) and stimulated with the following reagents for 3 days: immobilized CD16 antibody (Biolegend, 302014) (135 ng/cm^2), IL-2 (700 IU/mL), IL-15 (10 ng/mL) and OK432 (0.01 KE/mL). On day 3, cells were re-suspended in the above basal medium supplemented with IL-2 (700 IU/mL) and IL-15 (10 ng/mL). Fresh medium was added every other day to maintain cell density below 2×10^6 cells/mL. Cells were collect on Day 14 and stained with CD56-PE and CD3-PerCP-Cy5.5 antibodies, the percentage of CD56^+CD3^− NK cells was analyzed by flow cytometry.
as §1, with “Ficoll-Paque. On Day 0, PBMCs were plated at 1×10^6 cells/mL in a 48-well-plate in NKSFM with heparin sodium (0, 0.5, 1, 3, 10, 30, or 50 μg/mL) and stimulated with the following reagents for 3 days: immobilized CD16 antibody (Biolegend, 302014) (135 ng/cm^2), OK432 (0.01 KE/mL), NeoIL-2 (50 ng/mL), IL-12 (10 ng/mL), IL-18 (50 ng/mL).” for “Ficoll-Paque.”
The effect of PLT percentage (v/v) in an exemplary NKSFM on NK cell expansion was evaluated. […]

[3] = test system: K562 cells; test: Cytotoxicity of Stage 3 iNK cells towards K562 cells (CFSE/7AAD assay); settings: added to Stage 3 medium (IL-10 20 ng/mL, IL-18 50 ng/mL); 4 hr co-culture, E:T 3:1 (FIG. 13A)
Procedure: hiPSCs were prepared as described in CN108373998B. On Day −1, Embryoid body (EB) formation (Stage 1-1) was carried out by placing individualized hiPSCs in E8 medium containing 10 μM Blebbistatin in T25 flasks on a bellydancer and culture overnight. On Day 0, lateral mesoderm differentiation (Stage 1-2) was initiated by changing the medium to a Stage 1-2 differentiation medium comprising IF-4 basal medium and supplemented with BMP4 (25 ng/mL), VEGF (15 ng/mL), bFGF (0.5 ng/mL) and CHIR99021 (4 μM) for 2 days. On Day 2, lateral mesoderm differentiation (Stage 1-3) continued for 1 day in a Stage 1-3 differentiation medium comprising IF-4 basal medium and supplemented with BMP4 (25 ng/mL), VEGF (50 ng/mL) and bFGF (0.5 ng/mL) and CHIR99021 (1 μM). On Day 3, HE specification (Stage 1-4) was initiated by adding a Stage 1-4 differentiation medium comprising IF-4 basal medium and supplemented with VEGF (15 ng/mL), bFGF (5 ng/mL), XAV939 (5 μM) for 1 day. […] On Day 11 of co-culture, iNK cells were collected and stained with CD56-PE antibody (BD, #555516), the percentage of CD56+ cells was analyzed by flow cytometry. The cytotoxicity of Stage 3 iNK cells towards K562 cells was detected by CFSE/7AAD assay after 4 hr co-culture at E:T of 3:1.

Substance	specific lysis of K562 tumor cells, effect of concentration [1]	NK cell expansion fold, effect of concentration ([2]; Day 13 (FIG. 3A))	percentage of CD56^+CD3^− NK cells, effect of concentration ([2]; Day 13 (FIG. 3B))	cytotoxicity of iNK cells towards K562 cells [3]
heparin sodium	minimal effect	significantly influences	minimal effect	–
IL-10: interleukin added to Stage 3 expansion and maturation medium	–	–	–	significantly improve
